The text below walks through data of the supplement of paper PMC13380429.

± gives the standard deviation of the averaged measurements.

Usually cell viability stands for a read-out of living cells in per cent, often relative to untreated cells.

Holding throughout (conditions): 72 h
Assay [1] has as its system U2OS. The assay is described as follows: drug sensitivity score (DSS) for viability; higher = more toxic; extreme values may be limits of the assay.
In assay [2] the test system is Vero E6. Described as above.
The subject of assay [3] is Calu-3. Described as above.
The test system of assay [4] is Caco-2. The assay is described as above.
Assay [5] concerns U2OS. The assay is described as follows: relative viability EC50 (midpoint between 100% and the lowest measured viability); higher = less toxic.
Assay [6] concerns Vero E6. The description is as above.
Assay [7] concerns Calu-3. The description is as above.
Assay [8] has as its system Caco-2. The assay is described as above.
The test system of assay [9] is U2OS. The assay is described as follows: cell viability relative to DMSO; higher = less toxic.
For assay [10], the system named is Vero E6. The description is as above.
Assay [11] concerns Calu-3. The description is as above.
The test system of assay [12] is Caco-2. The assay is described as above.
Assay [13] concerns HepG2. The assay is described as follows: drug sensitivity score (DSS) for viability; higher = more toxic; extreme values may be limits of the assay.
Assay [14] relates to HepG2. The assay is described as follows: cell viability relative to DMSO; higher = less toxic.

Consider `COc1cc(/C=C/C(=O)O)ccc1O` [ferulic-acid], for which the drug sensitivity score in [1], in [2], in assay [3] and in assay [4] was 0 in each case. Also, the “relative viability EC50” value in assay [5], in assay [6], in assay [7] and in assay [8] was over 10 µM each time. The cell viability in assay [9] (1 nM) was found to be 97.8%; in assay [9] (10 nM), 102%; in [9] (100 nM) it was 99.9%; in assay [9] (1000 nM), 99.3%; in [9] (10000 nM) it was 101%; in [10] (1 nM), 94%. For the same compound, the cell viability in [10] (10 nM) is 107%; in assay [10] (100 nM), 94.5%; in assay [10] (1000 nM), 96.2%; in [10] (10000 nM) it was 107%; in [11] (1 nM), 93.8%; in assay [11] (10 nM), 98.6%. The cell viability stood at 103% in [11] (100 nM); 95.6% in assay [11] (1000 nM); 94.2% in assay [11] (10000 nM); 99% in [12] (1 nM); 97.8% in [12] (10 nM); 96.4% in assay [12] (100 nM). Further, the cell viability in assay [12] (1000 nM) was 92.2%; in assay [12] (10000 nM), 103%.
As for `C/C=C(/C)C(=O)O[C@H]1C(C)=C[C@]23C(=O)[C@@H](C=C(CO)[C@@H](O)[C@]12O)[C@H]1[C@@H](C[C@H]3C)C1(C)C` [ingenol-mebutate], the drug sensitivity score was found to be 0.8 in assay [1]; 16.5 in assay [2]; 0 in assay [3]; 3.2 in assay [4]; 12 in [13]. Besides, the “relative viability EC50” value in [5], in [7] and in [8] was over 10 µM each time. Also, the cell viability is 101% in [9] (1 nM); 88.5% in assay [9] (10 nM); 75.2% in [9] (100 nM); 89.1% in [9] (1000 nM); 93.4% in assay [9] (10000 nM); 99.2% in [10] (1 nM). In addition, the cell viability in assay [10] (10 nM) is 83.9%; in [10] (100 nM), 54.7%; in [10] (1000 nM) it was 53%; in assay [10] (10000 nM), 51.7%; in assay [11] (1 nM) it was 117%; in assay [11] (10 nM), 110%. For the same compound, the cell viability in assay [11] (100 nM) was determined as 96.6%; in assay [11] (1000 nM) it was 102%; in assay [11] (10000 nM), 105%; in [12] (1 nM), 109%; in assay [12] (10 nM), 110%; in assay [12] (100 nM), 89.8%. The cell viability stood at 81.8% in assay [12] (1000 nM); 84.6% in assay [12] (10000 nM); 102% in [14] (1 nM); 86.4% in assay [14] (10 nM); 66.4% in [14] (100 nM); 70.7% in assay [14] (1000 nM). In assay [14] (10000 nM), the cell viability is 77.7%.
Regarding `O=C(O)c1nn(Cc2ccc(Cl)cc2Cl)c2ccccc12` [lonidamine], the drug sensitivity score in assay [1], in assay [2], in [3] and in [4] was 0 throughout. Moreover, the “relative viability EC50” value in assay [5], in assay [6], in assay [7] and in assay [8] was over 10 µM in each case. Moreover, the cell viability in assay [9] (1 nM) worked out at 100%; in assay [9] (10 nM) it was 110%; in [9] (100 nM) it was 98%; in assay [9] (1000 nM) it was 111%; in [9] (10000 nM) it was 98%; in assay [10] (1 nM) it was 98.8%. Also, the cell viability in assay [10] (10 nM) amounted to 102%; in assay [10] (100 nM), 102%; in [10] (1000 nM) it was 95.8%; in [10] (10000 nM) it was 95.8%; in [11] (1 nM) it was 98.5%; in [11] (10 nM) it was 96.2%. Further, the cell viability in [11] (100 nM) was determined as 89.8%; in assay [11] (1000 nM) it was 101%; in assay [11] (10000 nM), 116%; in assay [12] (1 nM) it was 95.3%; in [12] (10 nM), 107%; in [12] (100 nM), 94.1%. The cell viability in assay [12] (1000 nM) came out at 105%; in [12] (10000 nM) it was 96.4%.
With `CC1COc2c(N3CCN(C)CC3)c(F)cc3c(=O)c(C(=O)O)cn1c23` (stereo not drawn) [ofloxacin], the drug sensitivity score in assay [1] came out at 0; in assay [2], 0; in [3] it was 0; in assay [13] it was 0.85 ± 1.2.
